Source: the supplement of paper PMC10627819

What was measured:
Experiment in all cases: fitness (endpoint OD595 vs no drug) (fraction); higher = more growth
[1] = system: S. aureus DSM 20231
In short: (§1)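 Bacterial fitness was scored as optical density at the stationary-phase transition relative to the robust mean of no-drug control wells. Scores are capped at 1. The growth data were OD595 readings every 30 min for 14 h at 37 °C, background-subtracted against the first reading, from 384-well plates inoculated at OD595 0.01 in TSB, LB Lennox or CY.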

[2] = system: S. aureus Newman
In short: as §1

[3] = system: S. pneumoniae D39V
In short: as §1
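Also: OD595 on entry to stationary phase over no-drug wells; at most 1.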

CO/N=C(\C(=O)N[C@@H]1C(=O)N2C(C(=O)O)=C(COC(C)=O)CS[C@H]12)c1csc(N)n1 [Cefotaxime] + CO[C@@]12[C@H](COC(N)=O)C3=C(C(=O)C(C)=C(N)C3=O)N1C[C@@H]1N[C@@H]12 [Mitomycin C]
Details | fitness
[1], first compound 0.039 µg/mL, partner 0.0156 µg/mL | 0.581
[1], first compound 0.039 µg/mL, partner 0.0312 µg/mL | 0.532
[1], first compound 0.039 µg/mL, partner 0.0625 µg/mL | 0.607
[1], first compound 0.078 µg/mL, partner 0.0156 µg/mL | 0.581
[1], first compound 0.078 µg/mL, partner 0.0312 µg/mL | 0.577
[1], first compound 0.078 µg/mL, partner 0.0625 µg/mL | 0.537
[1], first compound 0.156 µg/mL, partner 0.0156 µg/mL | 0.538
[1], first compound 0.156 µg/mL, partner 0.0312 µg/mL | 0.562
[1], first compound 0.156 µg/mL, partner 0.0625 µg/mL | 0.54
[1], first compound 0.312 µg/mL, partner 0.0156 µg/mL | 0.483
[1], first compound 0.312 µg/mL, partner 0.0312 µg/mL | 0.495
[1], first compound 0.312 µg/mL, partner 0.0625 µg/mL | 0.457
[2], first compound 0.078 µg/mL, partner 0.0156 µg/mL | 0.577
[2], first compound 0.078 µg/mL, partner 0.0312 µg/mL | 0.574
[2], first compound 0.078 µg/mL, partner 0.0625 µg/mL | 0.422
[2], first compound 0.156 µg/mL, partner 0.0156 µg/mL | 0.48
[2], first compound 0.156 µg/mL, partner 0.0312 µg/mL | 0.414
[2], first compound 0.156 µg/mL, partner 0.0625 µg/mL | 0.234
[2], first compound 0.312 µg/mL, partner 0.0156 µg/mL | 0.313
[2], first compound 0.312 µg/mL, partner 0.0312 µg/mL | 0.22
[2], first compound 0.312 µg/mL, partner 0.0625 µg/mL | 0.138
[3], first compound 0.0018 µg/mL, partner 0.001075 µg/mL | 0.978
[3], first compound 0.0018 µg/mL, partner 0.002 µg/mL | 0.789
[3], first compound 0.0018 µg/mL, partner 0.00215 µg/mL | 0.949
[3], first compound 0.0018 µg/mL, partner 0.004 µg/mL | 0.81
[3], first compound 0.0018 µg/mL, partner 0.0043 µg/mL | 0.863
[3], first compound 0.0018 µg/mL, partner 0.008 µg/mL | 0.702
[3], first compound 0.0035 µg/mL, partner 0.001075 µg/mL | 0.976
[3], first compound 0.0035 µg/mL, partner 0.002 µg/mL | 0.781
[3], first compound 0.0035 µg/mL, partner 0.00215 µg/mL | 0.922
[3], first compound 0.0035 µg/mL, partner 0.004 µg/mL | 0.767
[3], first compound 0.0035 µg/mL, partner 0.0043 µg/mL | 0.838
[3], first compound 0.0035 µg/mL, partner 0.008 µg/mL | 0.647
[3], first compound 0.007 µg/mL, partner 0.001075 µg/mL | 0.895
[3], first compound 0.007 µg/mL, partner 0.002 µg/mL | 0.694
[3], first compound 0.007 µg/mL, partner 0.00215 µg/mL | 0.834
[3], first compound 0.007 µg/mL, partner 0.004 µg/mL | 0.679
[3], first compound 0.007 µg/mL, partner 0.0043 µg/mL | 0.802
[3], first compound 0.007 µg/mL, partner 0.008 µg/mL | 0.637

fitness, [2], one replicate
Details | first compound 0.625 µg/mL | first compound 1.25 µg/mL | first compound 2.5 µg/mL
partner 0.0156 µg/mL | 0.0313 | 0.0209 | 0.0581
partner 0.0312 µg/mL | 0.025 | 0.0017 | 0.0229
partner 0.0625 µg/mL | 0.0258 | 0 | 0.0272
